Data reported in paper PMC7673538 (PLoS Biology, 2020).
Where “and” joins values, the source holds several entries; their conditions need not be identical. Identical values can stand only once. Like-named read-outs stand apart in the source and are kept apart here.

Legend:
Assay in all cases: microbe, parasite or virus in culture
EV-A71 = assay type: cell-based, enterovirus A71; details: for EC50: Enterovirus A
CV-A24 = assay type: cell-based, coxsackievirus A24; details: Enterovirus C
CV-A24v = assay type: cell-based, coxsackievirus A24v; details: for EC50: Coxsackievirus
EV-D68 = assay type: cell-based, enterovirus D68; details: for EC50: Enterovirus D
HRV-A2 = assay type: cell-based, human rhinovirus

COc1ccc(N(Cc2ccc(F)cc2)C(=O)c2ccco2)cc1 [Compound 1, N-(4-fluorobenzyl)-N-(4-methoxyphenyl)furan-2-carboxamide]
Figure 7 dose-response raw data, EV-A71 (triplicate values) (EV-A71; Concentration 0.0046 µM): 12.0987 and 12.2161 and 13.2733
Figure 7 dose-response raw data, EV-A71 (triplicate values) (EV-A71; Concentration 0.0137 µM): 11.5913 and 20.0727 and 21.6478
Figure 7 dose-response raw data, EV-A71 (triplicate values) (EV-A71; Concentration 0.0412 µM): 13.4087 and 20.6785 and 25.0404
Figure 7 dose-response raw data, EV-A71 (triplicate values) (EV-A71; Concentration 0.1235 µM): 12.0987 and 12.2161 and 13.2733
Figure 7 dose-response raw data, EV-A71 (triplicate values) (EV-A71; Concentration 0.3704 µM): 11.5913 and 20.0727 and 21.6478
Figure 7 dose-response raw data, EV-A71 (triplicate values) (EV-A71; Concentration 1.1111 µM): 13.4087 and 20.6785 and 25.0404
Figure 7 dose-response raw data, EV-A71 (triplicate values) (EV-A71; Concentration 3.3333 µM): 12.0987 and 12.2161 and 13.2733
Figure 7 dose-response raw data, EV-A71 (triplicate values) (EV-A71; Concentration 11.1111 µM): 11.5913 and 20.0727 and 21.6478
Figure 7 dose-response raw data, EV-A71 (triplicate values) (EV-A71; Concentration 33.3333 µM): 13.4087 and 20.6785 and 25.0404
Figure 7 dose-response raw data, EV-A71 (triplicate values) (EV-A71; Concentration 100 µM): 11.5913 and 20.0727 and 21.6478
EC50 (EV-A71; EVA71, HeLa R19, read-out: EC50 EV-A71): > 30 µM
EC50 (EV-A71; EVA71, HeLa R19, read-out: EC50 EV-A71 Average): > 30 µM
EC50 (EV-A71; EVA71, HeLa R19, read-out: EC50 EV-A71 Experiement 3): > 30 µM
EC50 (EV-A71; EVA71, HeLa R19, read-out: EC50 EV-A71 Experiment 1): > 30 µM
EC50 (EV-A71; EVA71, HeLa R19, read-out: EC50 EV-A71 Experiment 2): > 30 µM
EC50 (EV-A71; EVA71, HeLa R19, read-out: EC50 EV-A71 strain BrCr): > 30 µM
EC50 (EV-A71; EVA71, HeLa R19, read-out: EC50 EV-A71 strain TW/2728/04): > 30 µM
EC50 (EV-A71; EVA71, HeLa R19, read-out: EC50 EV-A71 strain TW/2945/98): > 30 µM
EC50 (EV-A71; EVA71, HeLa R19, read-out: EC50 EV-A71 strain TW/70811/08): > 30 µM
EC50 (EV-A71; EVA71, HeLa R19, read-out: EC50 EV-A71 strain TW/72232/04): > 30 µM
EC50 (EV-A71; EVA71, HeLa R19, read-out: EC50 EV-A71 strain TW/96016/08): > 30 µM
EC50 (CV-A24; CVA24, HeLa R19, read-out: EC50 CV-A24): > 30 µM
EC50 (CV-A24; CVA24, HeLa R19, read-out: EC50 CV-A24 Average): > 30 µM
EC50 (CV-A24; CVA24, HeLa R19, read-out: EC50 CV-A24 Experiement 3): > 30 µM
EC50 (CV-A24; CVA24, HeLa R19, read-out: EC50 CV-A24 Experiment 1): > 30 µM
EC50 (CV-A24; CVA24, HeLa R19, read-out: EC50 CV-A24 Experiment 2): > 30 µM
EC50 (CV-A24; CVA24, HeLa R19, read-out: EC50 CV-A24 strain Joseph): > 30 µM
Figure 7 dose-response raw data, CV-A24v (triplicate values) (CV-A24v; Concentration 0.0046 µM): 10.497 and 8.759 and 8.625
Figure 7 dose-response raw data, CV-A24v (triplicate values) (CV-A24v; Concentration 0.0137 µM): 9.388 and 8.898 and 11.4747
Figure 7 dose-response raw data, CV-A24v (triplicate values) (CV-A24v; Concentration 0.0412 µM): 9.388 and 8.898 and 11.4747
Figure 7 dose-response raw data, CV-A24v (triplicate values) (CV-A24v; Concentration 0.1235 µM): 8.529 and 8.161 and 15.8928
Figure 7 dose-response raw data, CV-A24v (triplicate values) (CV-A24v; Concentration 0.3704 µM): 10.8611 and 15.1565 and 15.6474
Figure 7 dose-response raw data, CV-A24v (triplicate values) (CV-A24v; Concentration 1.1111 µM): 10.0021 and 16.3837 and 13.9292
Figure 7 dose-response raw data, CV-A24v (triplicate values) (CV-A24v; Concentration 11.1111 µM): 8.182 and 7.259 and 9.382
EC50 (CV-A24v; HeLa R19, read-out: EC50 CV-A24v strain 110386): > 30 µM
EC50 (CV-A24v; HeLa R19, read-out: EC50 CV-A24v strain 110389): > 30 µM
EC50 (CV-A24v; HeLa R19, read-out: EC50 CV-A24v strain 110390): > 30 µM
EC50 (CV-A24v; HeLa R19, read-out: EC50 CV-A24v strain 110392): > 30 µM
inhibition of EV-D68 replication (in words) (EV-D68): antiviral activity
Figure 7 dose-response raw data, EV-D68 (triplicate values) (EV-D68; Concentration 0.001 µM): 8.529 and 8.161 and 15.8928
Figure 7 dose-response raw data, EV-D68 (triplicate values) (EV-D68; Concentration 0.0412 µM): 9.388 and 8.898 and 11.4747
Figure 7 dose-response raw data, EV-D68 (triplicate values) (EV-D68; Concentration 0.1235 µM): 8.529 and 8.161 and 15.8928
Figure 7 dose-response raw data, EV-D68 (triplicate values) (EV-D68; Concentration 0.3704 µM): 8.529 and 8.161 and 15.8928
Figure 7 dose-response raw data, EV-D68 (triplicate values) (EV-D68; Concentration 1.1111 µM): 105.527 and 109.089 and 109.58
Figure 7 dose-response raw data, EV-D68 (triplicate values) (EV-D68; Concentration 3.3333 µM): 104.422 and 100.246 and 109.335
Figure 7 dose-response raw data, EV-D68 (triplicate values) (EV-D68; Concentration 10 µM): 100.368 and 102.702 and 104.422
EC50 (EV-D68; EVD68, HeLa R19, read-out: EC50 EV-D68 Experiement 3): 0.31 µM
EC50 (EV-D68; EVD68, HeLa R19, read-out: EC50 EV-D68 Experiment 1): 0.25 µM
EC50 (EV-D68; EVD68, HeLa R19, read-out: EC50 EV-D68 Experiment 2): 0.39 µM
EC50 (EV-D68; EVD68, HeLa R19, read-out: EC50 EV-D68 strain 4310900947): 3.65 ± 0.34 µM
EC50 (EV-D68; EVD68, HeLa R19, read-out: EC50 EV-D68 strain 4310901348): 4.47 ± 0.13 µM
EC50 (EV-D68; EVD68, HeLa R19, read-out: EC50 EV-D68 strain 4310902042): 4.05 ± 0.65 µM
EC50 (EV-D68; EVD68, HeLa R19, read-out: EC50 EV-D68 strain 4310902284): 2.23 ± 0.12 µM
EC50 (EV-D68; EVD68, HeLa R19, read-out: EC50 EV-D68 strain 4311000742): 3.83 ± 0.4 µM
EC50 (EV-D68; EVD68, HeLa R19, read-out: EC50 Exp2): 1.95 µM
Figure 7 dose-response raw data, HRV-A2 (triplicate values) (HRV-A2; Concentration 0.0412 µM): 7.118 and 8.563 and 11.1417
Figure 7 dose-response raw data, HRV-A2 (triplicate values) (HRV-A2; Concentration 0.1235 µM): 6.499 and 7.221 and 5.983
Figure 7 dose-response raw data, HRV-A2 (triplicate values) (HRV-A2; Concentration 0.3704 µM): 11.7607 and 8.975 and 8.666
